Where a name gives a salt, the structure may show the parent alone.
How the values were obtained:
[1] = test system: mouse vascular injury model; experiment: Neointimal formation suppressive effect in mouse vascular injury model; format: in vivo; conditions: high dose systemic administration: single intraperitoneal, 28 days after wire injury
Procedure: Using the pioglitazone-containing nanoparticles obtained in Example 1, the neointimal formation suppressive effect in mouse vascular injury model was tested. […] The both ends of the blood vessel were ligated with a 6-0 silk thread to temporarily shut off the blood flow. The branch was incised, and a wire (diameter […], No. C—SF-15-15, COOK) was inserted by 5 mm in the iliac artery side to injure the blood vessel. After wire injury, the experimental animals were divided into a solvent control group and pioglitazone-containing nanoparticle group. The wire was removed, 100 μl, each of a solvent and a pioglitazone-containing PLGA nanoparticle solution was intraarterially administered from the branch over 5 min. The solvent control group was administered with the solvent (phosphate buffered saline) alone only once. The pioglitazone-containing nanoparticle group was administered with the pioglitazone-containing PLGA nanoparticles obtained in Example 1 (containing 0.5 mg/mouse as nanoparticles, corresponding to pioglitazone concentration of 0.015 mg/mouse (0.5 mg/kg body weight)) once. After administration, the branch part was ligated, the blood flow was resumed and the skin was sutured. Immediately after the wire injury, a high dose (10-fold amount of clinical dose) pioglitazone hydrochloride (0.15 mg/mouse (5 mg/kg body weight) as pioglitazone) single time intraperitoneal administration group was formed. At 28 days after vascular injury, the right femoral artery was washed and fixed with phosphate buffered saline and neutral buffered formalin via the heart, and isolated. A paraffin section was prepared and stained with Elastica van Gieson, proliferating cell nuclear antigen (PCNA) was immunohistochemically stained, and evaluated for the intima/media ratio, neointimal area, medial area and cell proliferation. For immunohistochemical staining, the proliferated cells were counted and the ratio of thereof to the total cell number was calculated.

[2] = test system: Rat aortic smooth muscle cells; experiment: Delivery and retention of nanoparticles in cultured rat smooth muscle cells; format: cell-based; conditions: medium containing FITC alone
Procedure: Using the FITC-containing nanoparticles prepared in Experimental Example 3 (1), deliver and retention tests in cultured rat […] smooth muscle cell were performed.
Rat aortic smooth muscle cells (obtained from TOYOBO) were plated on a slide glass chamber to a subconfluent cell density in DMEM medium (Sigma) containing 10% fetal bovine serum (day 0). On day 2, the medium was changed to a medium containing FITC or FITC-containing nanoparticles (0.5 mg/mL in nanoparticles concentration).
At 5 min and 24 hr after medium exchange, the cells were fixed with methanol, the nucleus was stained with Propidium iodide (Vector laboratories, Inc.), and subjected to fluorescence microscope observation. The total number of nuclei and fluorescence positive cells were counted for each field of view, and the ratio of fluorescence positive cells was calculated.

CCc1ccc(CCOc2ccc(CC3SC(=O)NC3=O)cc2)nc1 (stereo not shown) [Pioglitazone, pioglitazone hydrochloride]
Intima/media ratio ([1]; 0.15 mg/mouse (5 mg/kg) as pioglitazone): 2.3 ± 1.2
Medial area (μm^2) ([1]; 5 mg/kg as pioglitazone): 14904 ± 2107 μm^2
Neointimal area (μm^2) ([1]; 5 mg/kg as pioglitazone): 23656 ± 8982 μm^2

fluorescein isothiocyanate [FITC]
Ratio of fluorescence positive cells [2]: 0%
